Measurements: patent US9751919B2, “Antimicrobial compositions comprising a hyaluronic acid binding peptide and a β-lactam antibiotic” (priority 2012, dated 2017)
Where “and” joins values, the source holds several entries; their conditions need not be identical. Equal entries are not always repeated. Marks after values point to notes of the source that are not given here.

How the values were obtained:
Assay in all cases: Checkerboard assay (FIC index)
[1] = test system: CA-MRSA; format: cell-based, Staphylococcus aureus
Description: (§1) Checkerboard assays were carried out as described by Bonapace et al.
(§2) Diagnostic Microbiology and Infectious Diseases 2002; 44:363-366. In brief, checkerboard assays were performed in 96 well microtitre trays using an 8-by-8 well configuration. […] 96-well custom designed microtitre plates contained 100 ul/well of cation adjusted Mueller-Hinton broth (eg. for Enterobacteriaceae) with or without lysed horse blood (2-5% V/V) [eg. for S. pneumoniae] and were inoculated to achieve a final concentration of approximately 5×10^5 CFU/ml and incubated in ambient air for 24 hours prior to reading. Colony counts were performed periodically to confirm inocula. Quality control was performed every two weeks using a variety of ATCC QC organisms including; S. pneumoniae 49619, S. aureus 29213, E. faecalis 29212, E. coli 25922 and P. aeruginosa 27853. […] All peptides were assessed for synergy with β-lactams and vancomycin. For all antimicrobials as well as the peptides, CLSI criteria were used.
(§3) The fractional inhibitory concentration index (FIC index) was used to interpret synergy, antagonism or additivity/indifference. FIC index=FIC of drug A+FIC of drug B where:
(§4) The FIC of drug A and drug B was calculated as follows, FIC drug A=MIC of drug A in combination/MIC of drug A alone and FIC of drug B=MIC of drug B in combination/MIC of drug B alone. Synergy was defined as FIC index ≦0.5, additivity/indifference defined as a FIC between 0.5 and 4 and antagonism defined as an FIC index >4.
(§5) The fractional inhibitory concentration index (FIC index) was used to interpret synergy, antagonism or additivity/indifference. FIC index=FIC of drug A+FIC of drug B where the FIC of drug A and drug B was calculated as follows, FIC drug A=MIC of drug A in combination/MIC of drug A alone and FIC of drug B=MIC of drug B in combination/MIC of drug B alone. Synergy was defined as FIC index ≦0.5, additivity/indifference defined as an FIC of between 0.5 and 4 and antagonism defined as an FIC index >4.
(§6) The checkerboard assays were carried out as described by Eliopoulos and Moellering (Chapter 9) in Antibiotic in Laboratory Medicine, Lorian Ed. 1996 as well as Bonapace et al. Diagnostic Microbiology and Infectious Diseases 2002; 44:363-366 and Bonapace et al. Diagnostic Microbiology and Infectious Diseases 2000; 38:43-50. In brief, checkerboard assays were performed in 96 well microtitre trays using an 8-by-8 well configuration. […] 96-well custom designed microtitre plates contained 100 ul/well of cation adjusted Mueller-Hinton broth (eg. for Enterobacteriaceae) with or without lysed horse blood (2-5% V/V) [eg. for S. pneumoniae] and were inoculated to achieve a final concentration of approximately 5×10^5 CFU/ml and incubated in ambient air for 24 hours prior to reading. Colony counts were performed periodically to confirm inocula. Quality control was performed every two weeks using a variety of ATCC QC organisms including; S. pneumoniae 49619, S. aureus 29213, E. faecalis 29212, E. coli 25922 and P. aeruginosa 27853.
(§7) The FIC of drug A and drug B is calculated as follows, FIC drug A=MIC of drug A in combination/MIC of drug A alone and FIC of drug B=MIC of drug B in combination/MIC of drug B alone. Synergy is defined as FIC index ≦0.5, additivity/indifference FIC >0.5-4 and antagonism FIC index >4.
(§8) These agents were obtained as laboratory grade powders from their respective manufacturers. Stock solutions were prepared and dilutions made as described by the Clinical Laboratory Standards Institute (2005 CLSI).

[2] = test system: HA-MRSA; format: cell-based, Staphylococcus aureus
Description: as §1, §2, §3, §4, §5, §6, §7, §8

[3] = test system: VRSA; format: cell-based, Staphylococcus aureus
Description: as §1, §2, §3, §4, §5, §6, §7, §8

[4] = test system: MRSE; format: cell-based, Staphylococcus epidermidis; details: antibiotic combined with PEP35;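 note: each agent diluted from 0.03 to 4 times its MIC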
Description: as §6, with “27853. For all antimicrobials as well as PEP35, CLSI criteria was used.” for “27853.”
as §3, §7
Antimicrobials used included PEP35, cefazolin, ceftriaxone, vancomycin, linezolid, tigecycline and daptomycin versus Gram-positive cocci and PEP35, gentamicin, levofloxacin, piperacillin/tazobactam, meropenem and colistin (Polymyxin E) versus Gram-negative bacilli. These agents were obtained as laboratory grade powders from their respective manufacturers. Stock solutions were prepared and dilutions made as described by the Clinical Laboratory Standards Institute (2005 CLSI).
Organisms included Gram-positive cocci (2 strains of each): Methicillin-susceptible Staphylococcus aureus (MSSA), community-associated (CA) and healthcare-associated (HA) methicillin-resistant Staphylococcus aureus (MRSA), vancomycin-intermediate Staphylococcus aureus (VISA), vancomycin-resistant Staphylococcus aureus (VRSA), methicillin-resistant Staphylococcus epidermidis (MRSE), Streptococcus pyogenes, Streptococcus agalactiae, Streptococcus pneumoniae, Enterococcus faecalis, Enterococcus faecium and vancomycin-resistant enterococcus (VRE). Gram-negative bacilli tested (2 strains of each) included: E. coli, Pseudomonas aeruginosa, Klebsiella pneumoniae, K. oxytoca, Enterobacter cloacae, P. mirabilis and Stenotrophomonas maltophilia. MIC testing, following two subcultures from frozen stock were determined by the CLSI 2005 approved broth microdilution method.

[5] = antibiotic combined with PEP35 (added together), CA-MRSA 70857 (USA400)
[6] = β-lactam combined with HybPEP35-1, CA-MRSA 69615 (USA400)
[7] = β-lactam combined with PEP-52, CA-MRSA 69615 (USA400)
[8] = β-lactam combined with Scrambled PEP35, CA-MRSA 69615 (USA400)
[9] = antibiotic combined with PEP35 (added together), HA-MRSA 77090 (USA100/800)
[10] = β-lactam combined with HybPEP35-1, HA-MRSA 70798 (USA100/800)
[11] = β-lactam combined with PEP-52, HA-MRSA 70798 (USA100/800)
[12] = β-lactam combined with Scrambled PEP35, HA-MRSA 70798 (USA100/800)
[13] = antibiotic combined with PEP35 (added together), VRSA 105
[14] = β-lactam combined with HybPEP35-1, VRSA 106
[15] = β-lactam combined with PEP-52, VRSA 106
[16] = β-lactam combined with Scrambled PEP35, VRSA 106
[17] = antibiotic combined with PEP35 (added together), CA-MRSA 69615 (USA400)
[18] = antibiotic combined with PEP35 (added together), HA-MRSA 70798 (USA100/800)
[19] = antibiotic combined with PEP35 (added together), VRSA 106

Cc1nnc(SCC2=C(C(=O)O)N3C(=O)[C@@H](NC(=O)Cn4cnnn4)[C@H]3SC2)s1 [Cefazolin]
Avg ΣFIC (range) [1, 5]: 0.3 (0.12-0.56) and 0.26 (0.09-0.53) | Avg ΣFIC (range) [1, 6]: 0.24 | Avg ΣFIC (range) [1, 7]: >0.5* | Avg ΣFIC (range) [1, 8]: 0.24 | Avg ΣFIC (range) [2, 9]: 0.30 (0.12-0.56) and 0.24 (0.075-0.53) | Avg ΣFIC (range) [2, 10]: 0.35 | Avg ΣFIC (range) [2, 11]: >1* | Avg ΣFIC (range) [2, 12]: 0.35 | Avg ΣFIC (range) [3, 13]: 0.63 (0.5-1.015) | Avg ΣFIC (range) [3, 14]: 0.52 | Avg ΣFIC (range) [3, 15]: >1* | Avg ΣFIC (range) [3, 16]: 0.52 | Avg ΣFIC (range) ([4]; MRSE 79617): 0.88 (0.53-1.25) | Avg ΣFIC (range) ([4]; MRSE 83100): 0.52 (0.37-0.62)

CO/N=C(\C(=O)N[C@@H]1C(=O)N2C(C(=O)O)=C(CSc3nc(=O)c(=O)[nH]n3C)CS[C@H]12)c1csc(N)n1 [Ceftriaxone]
Avg ΣFIC (range) [1, 5]: 0.51 (0.18-1.015) | Avg ΣFIC (range) [1, 6]: 0.31 | Avg ΣFIC (range) [1, 7]: >0.5* | Avg ΣFIC (range) [1, 8]: 0.31 | Avg ΣFIC (range) [2, 9]: 0.27 (0.09-0.53) and 0.27 (0.09-0.56) | Avg ΣFIC (range) [2, 10]: 0.32 | Avg ΣFIC (range) [2, 11]: >1* | Avg ΣFIC (range) [2, 12]: 0.32 | Avg ΣFIC (range) [3, 13]: 0.45 (0.24-0.56) and 0.54 (0.18-1.06) | Avg ΣFIC (range) [3, 14]: 0.39 | Avg ΣFIC (range) [3, 15]: >1* | Avg ΣFIC (range) [3, 16]: 0.39 | Avg ΣFIC (range) ([4]; MRSE 79617): 0.88 (0.53-1.25) | Avg ΣFIC (range) ([4]; MRSE 83100): 1.05 (0.75-1.25)

CCCCCCCCCC(=O)N[C@@H](Cc1c[nH]c2ccccc12)C(=O)N[C@H](CC(N)=O)C(=O)N[C@@H](CC(=O)O)C(=O)N[C@@H]1C(=O)NCC(=O)N[C@@H](CCCN)C(=O)N[C@@H](CC(=O)O)C(=O)N[C@H](C)C(=O)N[C@@H](CC(=O)O)C(=O)NCC(=O)N[C@H](CO)C(=O)N[C@@H]([C@H](C)CC(=O)O)C(=O)N[C@@H](CC(=O)c2ccccc2N)C(=O)O[C@@H]1C [Daptomycin, daptomycin]
Avg ΣFIC (range) [1, 17]: 1.18 (1.015-1.5) | Avg ΣFIC (range) [1, 5]: 1.18 (1.015-1.5) | Avg ΣFIC (range) [2, 18]: 0.99 (0.53-1.5) | Avg ΣFIC (range) [2, 9]: 1.27 (1.015-2.03) | Avg ΣFIC (range) [3, 13]: 0.52 (0.37-0.62) | Avg ΣFIC (range) [3, 19]: 0.91 (0.56-1.25) | Avg ΣFIC (range) ([4]; MRSE 79617): 1.19 (1.03-1.5) | Avg ΣFIC (range) ([4]; MRSE 83100): 1.1 (1.0-1.25)

CC(=O)NC[C@H]1CN(c2ccc(N3CCOCC3)c(F)c2)C(=O)O1 [Linezolid, linezolid]
Avg ΣFIC (range) [1, 17]: 0.80 (0.515-1.12) | Avg ΣFIC (range) [1, 5]: 0.89 (0.5-1.12) | Avg ΣFIC (range) [2, 18]: 0.70 (0.5-1.06) | Avg ΣFIC (range) [2, 9]: 0.74 (0.53-1.06) | Avg ΣFIC (range) [3, 13]: 0.80 (0.5-1.06) | Avg ΣFIC (range) [3, 19]: 0.83 (0.5-1.12) | Avg ΣFIC (range) ([4]; MRSE 79617): 1.10 (0.56-1.5) | Avg ΣFIC (range) ([4]; MRSE 83100): 0.73 (0.515-1.12)

C[C@@H](O)[C@H]1C(=O)N2C(C(=O)O)=C(S[C@@H]3CN[C@H](C(=O)N(C)C)C3)[C@H](C)[C@H]12 [Meropenem]
Avg ΣFIC (range) [1, 17]: 0.49 | Avg ΣFIC (range) [1, 6]: 0.70 | Avg ΣFIC (range) [1, 7]: >1* | Avg ΣFIC (range) [1, 8]: 0.70 | Avg ΣFIC (range) [2, 18]: 0.30 | Avg ΣFIC (range) [2, 10]: 0.38 | Avg ΣFIC (range) [2, 11]: >1* | Avg ΣFIC (range) [2, 12]: 0.38 | Avg ΣFIC (range) [3, 19]: 0.91 | Avg ΣFIC (range) [3, 14]: 0.91 | Avg ΣFIC (range) [3, 15]: >1* | Avg ΣFIC (range) [3, 16]: 0.91

CN(C)c1cc(NC(=O)CNC(C)(C)C)c(O)c2c1C[C@H]1C[C@H]3[C@H](N(C)C)C(O)=C(C(N)=O)C(=O)[C@@]3(O)C(O)=C1C2=O [Tigecycline, tigecycline]
Avg ΣFIC (range) [1, 17]: 0.93 (0.62-1.12) | Avg ΣFIC (range) [1, 5]: 0.74 (0.5-1.06) | Avg ΣFIC (range) [2, 18]: 0.77 (0.5-1.06) | Avg ΣFIC (range) [2, 9]: 0.83 (0.5-1.12) | Avg ΣFIC (range) [3, 13]: 0.93 (0.62-1.12) | Avg ΣFIC (range) [3, 19]: 1.2 (0.56-2.12) | Avg ΣFIC (range) ([4]; MRSE 79617): 1.19 (1.03-1.5) | Avg ΣFIC (range) ([4]; MRSE 83100): 1.21 (1.03-1.5)
